Measured values: patent US11261201B2 (priority 2018, dated 2022)
Converted amounts (≈) assume the structure as drawn. Where a name gives a salt, the structure may show the parent alone. Read-outs that look alike come from different tables or passages of the source.

Legend:
A. baumannii = experiment: Gram negative MIC protocol (OD600, LB, 24 h); conditions: Acinetobacter baumannii, read-out: MIC A. baumannii LB Media, A. baumannii, LB media, 24 h, OD600
Protocol: (§1) Overnight bacterial cultures were grown in LB with no added antibiotics at 37° C. with shaking. A 1:1000 dilution of these cultures into LB was exposed to concentration gradients of compounds in 96-well plates (100 μL per well assay volume). Resulting plates were incubated at 37° C. for 24 h without shaking, and OD600 was measured at the end of the incubation. MICs were determined as the lowest concentrations at which OD600 remained at baseline.

H37RvMA = experiment: Tuberculosis Alamar Blue/Resazurin assay (MIC); type: cell-based; conditions: read-out: WT H37Rv MTB Activity
E. coli = experiment: Gram negative MIC protocol (OD600, LB, 24 h); conditions: Escherichia coli
Protocol: as §1

[1] = Mycobacterium tuberculosis, H37RV, WT H37Rv MTB
[2] = read-out: MIC E. coli delta-TolC LB Media, E. coli delta-TolC, LB media, OD600
[3] = read-out: MIC WT E. coli LB Media, WT E. coli, LB media, OD600
[4] = read-out: MIC E. coli delta-TolC LB Media, E. coli delta-TolC strain, LB media, 24 h, OD600
[5] = read-out: MIC WT E. coli LB Media, wild-type E. coli, LB media, 24 h, OD600

Compound | MIC (A. baumannii) | MIC (H37RvMA; [1]) | MIC (E. coli; [2]) | MIC (E. coli; [3]) | MIC (E. coli; [4]) | MIC (E. coli; [5]) | MIC (H37RvMA; WT H37Rv MTB) | MIC (H37RvMA; Mycobacterium tuberculosis, H37RV) | MIC (E. coli; read-out: MIC E. coli delta-TolC LB Media) | MIC (E. coli; read-out: MIC WT E. coli LB Media)
C1=C(CCNCc2ccccc2)CCC1 [B39] | > 150 µM | > 150 µM | > 150 µM | > 150 µM |  |  |  |  |  | 
CC(CC1CCCCC1)NCc1ccccc1OCc1ccccn1 (stereo not drawn) [B295] | > 150 µM | 150 µM (≈ 50.8 µg/mL) |  |  | 4 µM (≈ 1.35 µg/mL) | > 150 µM |  |  |  | 
CC(CC1CCCCC1)NCc1ccccc1CS(=O)(=O)N[C@H]1C[C@@H](C(=O)O)C1 (stereo partly drawn) [B453, (1S,3S)-3-(((2-(((1-cyclohexylpropan-2-yl)amino)methyl)phenyl)methyl)sulfonamido)cyclobutane-1-carboxylic acid] | > 150 µM | > 150 µM | 20 µM (≈ 8.45 µg/mL) | > 150 µM |  |  |  |  |  | 
c1ccc(CNCCC23CC4CC(CC(C4)C2)C3)cc1 [B198] | 170 µM (≈ 45.8 µg/mL) |  |  |  | 170 µM (≈ 45.8 µg/mL) | > 300 µM | 91 µM (≈ 24.5 µg/mL) |  |  | 
COc1cccc(CNCCC2CCCCC2)c1 [B353] | > 150 µM | > 150 µM |  |  | > 150 µM | > 150 µM |  |  |  | 
CC(CC1CCCCC1)NCc1ccccc1OCCOCC1CC1 (stereo not drawn) [B261] | > 150 µM | 150 µM (≈ 51.8 µg/mL) |  |  | 4 µM (≈ 1.38 µg/mL) | > 150 µM |  |  |  | 
c1ccc(CNCC2CCCc3ccccc32)cc1 (stereo not drawn) [B127] | > 150 µM | 150 µM (≈ 37.7 µg/mL) | > 150 µM | > 150 µM |  |  |  |  |  | 
c1ccc(CNCC2C3CC4CC(C3)CC2C4)cc1 (stereo not drawn) [B59] | > 150 µM | 33 µM (≈ 8.43 µg/mL) | > 150 µM | > 150 µM |  |  |  |  |  | 
Cc1ccc2ncc(CCNCc3ccccc3)cc2c1 [B117] | > 150 µM | > 150 µM | > 150 µM | > 150 µM |  |  |  |  |  | 
C1=C(CCNCc2ccncc2)CCCC1 [B3] | > 150 µM | > 150 µM | > 150 µM | > 150 µM |  |  |  |  |  | 
Cl.c1ccc(CNCC2CCCc3ccccc32)cc1 (stereo not drawn) [B214, N-benzyl-1-(1,2,3,4-tetrahydronaphthalen-1-yl)methanamine hydrochloride] | > 300 µM |  |  |  | > 300 µM | > 300 µM | >150 µM |  |  | 
CCNS(=O)(=O)Cc1ccccc1CNC(C)CC1CCCCC1 (stereo not drawn) [B446, 1-(2-(((1-cyclohexylpropan-2-yl)amino)methyl)phenyl)-N-ethylmethanesulfonamide] | > 150 µM | > 150 µM | 7 µM (≈ 2.47 µg/mL) | 91 µM (≈ 32.1 µg/mL) |  |  |  |  |  | 
CC(O)COc1ccccc1CNC(C)CC1CCCCC1 (stereo not drawn) [B361] | 91 µM (≈ 27.8 µg/mL) | > 150 µM |  |  | 4 µM (≈ 1.22 µg/mL) | 91 µM (≈ 27.8 µg/mL) |  |  |  | 
CC(CC1CCCCC1)NCc1ccccc1OCCOC(C)(C)C (stereo not drawn) [B307] | > 150 µM | 150 µM (≈ 52.1 µg/mL) |  |  | 20 µM (≈ 6.95 µg/mL) | > 150 µM |  |  |  | 
CC(CC1CCCCC1)NCc1ccccc1OC1CCCCC1 (stereo not drawn) [B387, 1-cyclohexyl-N-(2-(cyclohexyloxy)benzyl)propan-2-amine] | 55 µM (≈ 18.1 µg/mL) | 33.4 µM (≈ 11 µg/mL) |  |  | 3 µM (≈ 0.989 µg/mL) | 91 µM (≈ 30 µg/mL) |  |  |  | 
c1ccc(CNCCC2CCCCO2)cc1 (stereo not drawn) [B222] | > 300 µM | > 150 µM |  |  | > 150 µM | > 300 µM |  |  |  | 
NCc1ccccc1CNCCC1CCCCC1 [B254, N-(2-(aminomethyl)benzyl)-2-cyclohexylethanamine hydrochloride] | > 150 µM | > 150 µM |  |  | > 150 µM | > 150 µM |  |  |  | 
OC1(CCNCc2ccccc2)CC2CCC1C2 (stereo not drawn) [B60] | > 150 µM | > 150 µM | > 150 µM | > 150 µM |  |  |  |  |  | 
c1ccc(CNCCC2COc3ccccc3O2)cc1 (stereo not drawn) [B46] | > 150 µM | > 150 µM | > 150 µM | > 150 µM |  |  |  |  |  | 
CC1(c2ccc(F)cc2)N(Cc2ccccc2)C12CC2 (stereo not drawn) [B98] | > 150 µM |  |  |  |  |  |  | > 150 µM | 150 µM (≈ 40.1 µg/mL) | > 150 µM
CC(CC1CCCCC1)NCc1ccccc1OCCOCC(F)(F)F (stereo not drawn) [B305] | 91 µM (≈ 34 µg/mL) | 150 µM (≈ 56 µg/mL) |  |  | 3 µM (≈ 1.12 µg/mL) | > 150 µM |  |  |  | 

Compound | MIC (A. baumannii) | MIC (H37RvMA; [1]) | MIC (E. coli; [2]) | MIC (E. coli; [3]) | MIC (E. coli; [4]) | MIC (E. coli; [5]) | MIC (H37RvMA; WT H37Rv MTB) | MIC (H37RvMA; Mycobacterium tuberculosis, H37RV) | MIC (E. coli; read-out: MIC E. coli delta-TolC LB Media) | MIC (E. coli; read-out: MIC WT E. coli LB Media)
CC(CC1CCCCC1)NCc1ccccc1OCc1ccccc1Br (stereo not drawn) [B381] | 55 µM (≈ 22.9 µg/mL) | 20.2 µM (≈ 8.41 µg/mL) |  |  | 4 µM (≈ 1.67 µg/mL) | 55 µM (≈ 22.9 µg/mL) |  |  |  | 
Cc1nonc1COc1ccccc1CNC(C)CC1CCCCC1 (stereo not drawn) [B245] | 150 µM (≈ 51.5 µg/mL) | 150 µM (≈ 51.5 µg/mL) |  |  | 4 µM (≈ 1.37 µg/mL) | 150 µM (≈ 51.5 µg/mL) |  |  |  | 
c1ccc(CNC[C@@H]2C[C@H]2c2ccccc2)cc1 [B61] | > 150 µM | > 150 µM | > 150 µM | > 150 µM |  |  |  |  |  | 
c1ccc(CNCCN2CCC3(CCCCC3)CC2)cc1 [B121] | > 150 µM | > 150 µM | > 150 µM | > 150 µM |  |  |  |  |  | 
CC(CC1CCCCC1)NCc1ccccc1OCc1ccccc1 (stereo not drawn) [B409, N-(2-(benzyloxy)benzyl)-1-cyclohexylpropan-2-amine] | 55 µM (≈ 18.6 µg/mL) | 12.2 µM (≈ 4.12 µg/mL) | 3 µM (≈ 1.01 µg/mL) | 55 µM (≈ 18.6 µg/mL) |  |  |  |  |  | 
CC(CC1CCCCC1)NCc1ccccc1OCC1CC1 (stereo not drawn) [B287] | 91 µM (≈ 27.4 µg/mL) | 150 µM (≈ 45.2 µg/mL) |  |  | 3 µM (≈ 0.904 µg/mL) | 150 µM (≈ 45.2 µg/mL) |  |  |  | 
Cc1cc(COc2ccccc2CNC(C)CC2CCCCC2)no1 (stereo not drawn) [B282] | > 150 µM | 150 µM (≈ 51.4 µg/mL) |  |  | 3 µM (≈ 1.03 µg/mL) | > 150 µM |  |  |  | 
CC(CC1CCCCC1)NCc1ccccc1OCCOC1CCCC1 (stereo not drawn) [B260] | > 150 µM | 91 µM (≈ 32.7 µg/mL) |  |  | 7 µM (≈ 2.52 µg/mL) | > 150 µM |  |  |  | 
c1ccc(CNCCC2CCCCCC2)cc1 [B102] | 150 µM (≈ 34.7 µg/mL) | 91 µM (≈ 21.1 µg/mL) | 90 µM (≈ 20.8 µg/mL) | 120 µM (≈ 27.8 µg/mL) |  |  |  |  |  | 
C[C@H](NCc1ccccc1)C1CCCc2ccccc21 (stereo partly drawn) [B113] | > 150 µM | > 150 µM | > 150 µM | > 150 µM |  |  |  |  |  | 
CNS(=O)(=O)Cc1ccccc1CNC(C)CC1CCCCC1 (stereo not drawn) [B445, 1-(2-(((1-cyclohexylpropan-2-yl)amino)methyl)phenyl)-N-methylmethanesulfonamide] | 150 µM (≈ 50.8 µg/mL) | > 150 µM | 4 µM (≈ 1.35 µg/mL) | 55 µM (≈ 18.6 µg/mL) |  |  |  |  |  | 
O=C1Cc2ccccc2CN1CCC1=CCCCC1 [B411, 2-(2-(cyclohex-1-en-1-yl)ethyl)-1,4-dihydroisoquinolin-3(2H)-one] | > 150 µM | 7.4 µM (≈ 1.89 µg/mL) | 150 µM (≈ 38.3 µg/mL) | > 150 µM |  |  |  |  |  | 
CNc1cccc(CNCCC2CCCCC2)c1 [B406, 3-(((2-cyclohexylethyl)amino)methyl)-N-methylaniline] | > 150 µM | 150 µM (≈ 37 µg/mL) | > 150 µM | > 150 µM |  |  |  |  |  | 
CC(NCc1ccccc1)C1CC1c1ccc(F)cc1 (stereo not drawn) [B76] | > 150 µM | > 150 µM | > 150 µM | > 150 µM |  |  |  |  |  | 
c1ccc(CNCCc2ccc3[nH]ncc3c2)cc1 [B115] | > 150 µM | > 150 µM | > 150 µM | > 150 µM |  |  |  |  |  | 
OB1OCc2ccc(CNCc3ccccc3)cc21 [B158, 6-((benzylamino)methyl)benzo[c][1,2]oxaborol-1(3H)-ol] | > 150 µM | > 150 µM | > 150 µM | > 150 µM |  |  |  |  |  | 
CCCCCCNCc1ccccc1 [B6] | > 150 µM | > 150 µM | > 150 µM | > 150 µM |  |  |  |  |  | 
CC(CC1CCCCC1)NCc1ccccc1OCCCO (stereo not drawn) [B251] | 91 µM (≈ 27.8 µg/mL) | > 150 µM |  |  | 7 µM (≈ 2.14 µg/mL) | 91 µM (≈ 27.8 µg/mL) |  |  |  | 
c1ccc(CNCCC2CCSCC2)cc1 [B332] | > 150 µM |  |  |  | > 150 µM | > 150 µM |  |  |  | 
O=C1Cc2ccccc2CN1CCC1CCCCC1 [B379] | > 150 µM |  |  |  | 150 µM (≈ 38.6 µg/mL) | > 150 µM |  |  |  | 
